{"source": "patent US11028073B2", "about": "“Butylphthalide-telmisartan hybrids, preparation method and application thereof” (GUANGDONG LONGFU MEDICINE CO., LTD., priority 2017, dated 2021)", "key": {"[1]": {"system": "rats with permanent middle cerebral artery occlusion", "assay": "Rotarod performance test in pMCAO rats", "format": "in vivo, rat", "conditions": "in s (unit assumed)", "protocol": "(§1) Experimental method: Surgical method was described as the operation method for the above tMCAO. The thread embolism remained in the brain of rats without pulling out, and rotarod performance was tested every day. Brains were taken out at 72 h after ischemia for the determination of infarct volume and neurobehavioral score. The process of the rotarod performance test was as follows: rats were placed on a rotating rod of which the speed was accelerated from 4 rpm up to the maximum speed of 40 rpm within 5 minutes. Rats were trained for 3 to 7 days before model establishment, the rotarod performance was tested at 1, 2 and 3 days after pMCAO, respectively, and the falling time of rats were recorded.\n(§2) In FIG. 3, pMCAO model is established on male rats of 260 to 280 g (thread embolism is not pulled out, resulting in permanent ischemia), the administration method is the same as that in FIG. 2, and the infract volume, neurobehavioral scores and rotarod test were determined at 72 h after ischemia, as described above."}, "rats with tMCAO [2]": {"system": "rats with tMCAO", "assay": "Infarct volume (TTC staining) in rats with transient middle cerebral artery occlusion (tMCAO)", "format": "in vivo, rat", "protocol": "(§3) Experimental method: 75 SD male rats weighing 300±20 g were raised under the condition of 25° C. and relative humidity of 60% to 75% for 1 week for experiment. Rats were randomized into 5 groups: sham group, vehicle group, drug administration group at 24 h after ischemia, drug administration group at 6 h after ischemia, drug administration group at 4 h after ischemia, respectively, with 15 animals in each group.\n(§4) Establishment of transient middle cerebral artery occlusion (tMCAO) rat model: The rats were anesthetized by intraperitoneal injection of chloral hydrate, and lying on an operating table with limbs fixed with string. […] ECA was ligated and cut off, ICA was clamped at the distal end with an arterial clip, and then a small opening was cut at the intersection of ECA and ICA near the ECA. A nylon thread with paraffin coated on one end was inserted from the small cut opening into the internal carotid artery at the intersection of the internal and external carotid arteries and further into the anterior cerebral artery at the proximal end, to block the blood supply to the middle cerebral artery on this side. At 120 minutes after ischemia, the nylon thread was withdrawn at the incision of the external carotid artery to achieve the reperfusion of the middle cerebral artery. The room temperature during surgery was controlled at 25 to 27° C.\n(§5) Administration method: administrating after surgery with a concentration of 1 mg/kg. Drug administration group at 4 h after ischemia was administrated at 4 h after ischemia, and once again after 24 h. Drug administration group at 6 h after ischemia was administrated at 6 h after ischemia, and once again after 24 h. Drug administration group at 24 h after ischemia was administrated once at 24 h after ischemia.\n(§6) After the time window for administration of 13 was determined, administration at 4 hour post-ischemia was selected as the subsequent testing time point. 95 SD male rats were randomized into 7 groups: sham group, vehicle group, NBP group, Telm group, NBP+Telm group, 13 group and edaravone group, respectively. The surgical procedure was as described above, NBP (1 mg/kg), Telm (1 mg/kg), NBP (1 mg/kg)+Telm (1 mg/kg), 13 (1 mg/kg) and edaravone (3 mg/kg) were administrated at 4 hour post-ischemia, and once again at 24 h, respectively. The infarct volume and neurobehavioral score were determined at 48 h post-ischemia.\nAt 48 h post-ischemia, the rats were anesthetized with pentobarbital sodium, decapitated to get brain quickly, olfactory bulb, cerebellum and lower brain stem were removed, and coronal was cut into 6 slices. Then the brain slices were placed in the solution containing 4% TTC and 1 mol/L of K2HPO4, incubated at 37° C. for 30 min in the dark, during which the brain slices were flipped every 7 to 8 min. […] Images were taken after staining, and the infarct volume was calculated using an image analysis software. The percentage of infarct volume is calculated by the following formula: infarct area/total brain cross-sectional area×100%.\n(§7) The experimental method was manipulated as described in 2. At 30 min before the administration of I3, rats were intraperitoneally injected with 20 mg/kg of AMPK inhibitor Compound C, and the volume of the ipsilateral hemisphere infarct and the neurobehavioral score were determined at 48 h post-ischemia. Western blot analysis was performed on ischemic brain tissue to determine the content of phosphorylated AMPK (p-AMPK) in the cerebral cortex at the infarct side.\n(§8) In FIG. 2, tMCAO models are established in male rats of 260 to 280 g (thread embolism is pulled out from the rats after 2 hour ischemia, resulting in reperfusion), 13 compound (1 mg/kg) is intravenously injected at 4 h post-ischemia, and intravenously injected again at 24 h post-ischemia. […]"}, "AMPK": {"system": "AMPK", "assay": "Western blot of phosphorylated AMPK (p-AMPK) in cerebral cortex at the infarct side of tMCAO rats", "format": "in vivo, rat", "conditions": "Compound C 20 mg/kg i.p. 30 min before I3", "protocol": "as §7"}, "TNF-α": {"system": "TNF-α", "assay": "LPS-induced TNF-α release in mouse primary microglia (ELISA)", "format": "cell-based", "conditions": "1 μM or 5 μM drug pre-administrated 3 h, then 100 ng/mL LPS 5 h; supernatant ELISA", "protocol": "The primary microglia were extracted from the brain of mouse and cultured, were pre-administrated with 1 μM or 5 μM drugs for 3 h, and then stimulated with 100 ng/mL lipopolysaccharide (LPS) for 5 h. The supernatant of cell culture was extracted, and the expression level of TNF-α in the supernatant was determined by ELISA method.\n(§9) In FIGS. 1A and 1B, mouse primary microglia are pre-incubated with 1 μM or 5 μM of test compounds for 3 hours, then stimulated with LPS for 5 hours, and the protein content of pro-inflammatory factor TNF-α is determined by ELISA method. In FIG. 1C, the activations of the compounds on Nrf2 are tested by Luciferase Reporter Assay."}, "[3]": {"system": "rats with permanent middle cerebral artery occlusion", "assay": "Infarct volume in rats with permanent middle cerebral artery occlusion (pMCAO)", "format": "in vivo, rat", "protocol": "as §1, §2"}, "Nrf2": {"system": "Nrf2", "assay": "Neh2-Luciferase reporter assay for Nrf2 activation in BV2 cells", "format": "cell-based", "conditions": "24 h incubation, BV2 cells", "protocol": "BV2 cells were transfected with Neh2-Luciferase reporter gene plasmid for 6 h, replaced a normal serum-containing medium and cultured for 24 h, then incubated with drug for 24 h, and treated with Reporter Lysis Buffer for 20 min. The Reporter Lysis Buffer was added to a 96-well plate, and the activity of luciferase was measured.\nas §9"}, "rats with tMCAO [4]": {"system": "rats with tMCAO", "assay": "Neurobehavioral function score in tMCAO rats", "format": "in vivo, rat", "protocol": "as §3, §4, §5, §6\nThe neurobehavioral function score of tMCAO rats were scored at 48 h after ischemia. Criteria for scoring is as follows: 0 point, no symptoms of nerve damage; 1 point, inability of fully extending forepaw at the healthy side; 2 points, circling to the healthy side; 3 points, tilting toward the healthy side; 4 points, inability of spontaneous walking and losing consciousness.\nas §7, §8"}, "[5]": {"system": "rats with permanent middle cerebral artery occlusion", "assay": "Neurobehavioral score in pMCAO rats", "format": "in vivo, rat", "protocol": "as §1, §2"}}, "data": [{"smiles": "CCCCC(OC(C)=O)c1ccccc1C(=O)NCCCCCCCCNC(=O)c1ccccc1-c1ccc(Cn2c(CCC)nc3c(C)cc(-c4nc5ccccc5n4C)cc32)cc1", "note": "(centres unmarked) [I3, 8-N-{2-[(1-acetoxyl)n-pentyl]benzoyl}octanediamine telmisartan amide]", "values": [{"measurement": "Falling time", "setting": "[1]; Before modeling (baseline)", "result": 279.10}, {"measurement": "Falling time", "setting": "[1]; Day 1 after pMCAO", "result": 68.63}, {"measurement": "Falling time", "setting": "[1]; Day 2 after pMCAO", "result": 94.00}, {"measurement": "Falling time", "setting": "[1]; Day 3 after pMCAO", "result": 125.13}, {"measurement": "Infarction rate (%)", "setting": "rats with tMCAO [2]; 1 mg/kg administrated at 6 h after ischemia and once again after 24 h, determined 48 h post-ischemia", "result": 13.07, "unit": "%"}, {"measurement": "Infarction rate (%)", "setting": "rats with tMCAO [2]; 1 mg/kg administrated once at 24 h after ischemia, determined 48 h post-ischemia", "result": 20.72, "unit": "%"}, {"measurement": "infarct volume compared with NBP group, Telm group and NBP+Telm group", "setting": "rats with tMCAO [2]; 4 h post-ischemia", "result": "more pronounced effect on reducing the infarct volume"}, {"measurement": "Infarction rate (%)", "setting": "rats with tMCAO [2]; I3 1 mg/kg i.v. at 4 h after ischemia, with or without Compound C 20 mg/kg i.p. 30 min before, 48 h post-ischemia", "result": 6.655, "unit": "%"}, {"measurement": "Infarction rate (%)", "setting": "rats with tMCAO [2]; administrated at 4 h post-ischemia and again at 24 h, 1 mg/kg (edaravone 3 mg/kg), determined 48 h post-ischemia", "result": 6.655, "unit": "%"}, {"measurement": "infarct volume compared with vehicle group", "setting": "rats with tMCAO [2]; administrating at each time point (4 h, 6 h, 24 h)", "result": "significantly reduced the infarct volume"}, {"measurement": "AMPK activity (p-AMPK content in cerebral cortex at the infarct side)", "setting": "AMPK", "result": "increase of AMPK activity"}, {"measurement": "melting point", "result": "94 to 95", "unit": "°C"}, {"measurement": "LPS-induced TNF-α release in mouse primary microglia", "setting": "TNF-α", "result": "significantly inhibit LPS-induced TNF-α release"}, {"measurement": "Infarction rate (%)", "setting": "[3]; 72 h after ischemia", "result": 12.48, "unit": "%"}, {"measurement": "infarct volume", "setting": "[3]; in words", "result": "significantly reduced the infarct volume"}, {"measurement": "activity of intracellular Nrf2 (luciferase)", "setting": "Nrf2; 1 μM", "result": "significantly activate the activity of intracellular Nrf2"}, {"measurement": "activity of intracellular Nrf2 (luciferase)", "setting": "Nrf2; 10 μM", "result": "significantly activate the activity of intracellular Nrf2"}, {"measurement": "neurological function score compared with vehicle group", "setting": "rats with tMCAO [4]; tMCAO (I/R) rats, administration at each time point", "result": "significantly reduced ischemia-induced neurological function score"}, {"measurement": "Neurobehavioral score", "setting": "rats with tMCAO [4]; tMCAO rats, 1 mg/kg, administrated after 4 h (time-window groups), scored 48 h after ischemia (0-4 points)", "result": 2.385}, {"measurement": "Neurobehavioral score", "setting": "rats with tMCAO [4]; tMCAO rats, 1 mg/kg, administrated after 6 h, scored 48 h after ischemia (0-4 points)", "result": 1.867}, {"measurement": "Neurobehavioral score", "setting": "rats with tMCAO [4]; tMCAO rats, 1 mg/kg, administrated after 24 h, scored 48 h after ischemia (0-4 points)", "result": 1.182}, {"measurement": "neurological function compared with NBP, Telm and NBP+Telm", "setting": "rats with tMCAO [4]; tMCAO rats, 4 h post-ischemia", "result": "more pronounced effect on improving the neurological function"}, {"measurement": "Neurobehavioral score", "setting": "rats with tMCAO [4]; tMCAO rats, I3 1 mg/kg i.v. at 4 h after ischemia, with or without Compound C 20 mg/kg i.p. 30 min before, 48 h post-ischemia", "result": 1.182}, {"measurement": "Neurobehavioral score", "setting": "rats with tMCAO [4]; tMCAO rats, comparison groups, administrated at 4 h post-ischemia and again at 24 h, 1 mg/kg (edaravone 3 mg/kg), scored 48 h", "result": 1.182}, {"measurement": "Neurobehavioral score", "setting": "[5]; 72 h after ischemia", "result": 1.6}, {"measurement": "neurobehavioral impairment", "setting": "[5]; in words", "result": "improved neurobehavioral impairment"}]}]}
